Reference: patent publication US20220305121A1, “N-ARYL SULFONAMIDE DERIVATIVES AS VACCINE ADJUVANT” (The Regents of the University of California, priority 2019, published 2022)
Entries after “also recorded” stand apart in the source; their conditions may differ.

Key:
Type in all cases: cell-based
NF-κB = assay: Measurement of NF-κB activation using THP1-Blue NF-κB cells (SEAP reporter, LPS as primary stimulus); details: for activity at 5 µM / NF-κB % Activation: compound 5 μM + LPS, 20 hour incubation, two point normalized: compound 1 + LPS = 200%, LPS = 100%, mean; for EC50: dose response in the presence of LPS
Protocol: (§1) THP1-Blue™ NF-κB cells were plated in 96-well plates at 10^5 cells/well in 100 μl RPMI supplemented with 10% fetal bovine serum (FBS, Omega Scientific, Inc., Tarzana, Calif.), 100 U/mL penicillin, 100 μg/ml streptomycin (Thermo Fisher Scientific) and Normocin (Invivogen). LPS was prepared in assay medium at a concentration of 20 μg/mL. Tested compounds were dissolved in DMSO at 1 mM as a stock solution and were further diluted in the LPS solution to a final concentration of 10 μM. 100 μL of this solution was then transferred to the plated cells to obtain a final concentration of LPS at 10 μg/mL and compound at 5 μM ([…]). The culture supernatants were harvested after a 20 hour incubation period, SEAP activity in the culture supernatants was determined by a colorimetric assay using QuantiBlue (Invivogen). Plate absorbance was read at 630 nm using a Tecan Infinite M200 plate reader (Männedorf, Switzerland). The SEAP concentration was directly proportional to NF-κB activity, which was 2-point normalized to yield activity of compound 1+LPS as 200% and activity for LPS as 100%.
(§2) Measurement of NF-κB Activation Using THP1-Blue NF-κB Cells. THP1-Blue NF-κB cells were plated in 96-well plates at 10^5 cells/well in 100 μL of RPMI supplemented with 10% fetal bovine serum (FBS, Omega Scientific, Inc., Tarzana, Calif.), 100 U/mL penicillin, 100 μg/mL streptomycin (Thermo Fisher Scientific), and Normocin (Invivogen). LPS was prepared in assay medium at a concentration of 20 μg/mL. Tested compounds were dissolved in DMSO at 1 mM as a stock solution and were further diluted in the LPS solution to a final concentration of 10 μM. 100 μL of this solution was then transferred to the plated cells to obtain a final concentration of LPS at 10 μg/mL and compound at 5 μM ([…]). The culture supernatants were harvested after a 20 hours incubation period. SEAP activity in the culture supernatants was determined by a colorimetric assay using QuantiBlue (Invivogen). Plate absorbance was read at 630 nm using a Tecan Infinite M200 plate reader (Mannedorf, Switzerland). The SEAP concentration was directly proportional to NF-κB activity, which was two-point normalized to yield activity of compound 1+LPS as 200% and activity for LPS as 100%.

ISRE = assay: Measurement of ISRE activity in ISRE-bla THP-1 cells (FRET, IFN-α as primary stimulus); details: for activity at 5 µM / EC50: Homo sapiens, THP-1; for activity at 5 µM / ISRE % Activation: compound 5 μM + IFN-α 100 U/mL, 16 hours, two point normalized: compound 1 + IFN-α = 200%, IFN-α = 100%, mean; for activity at 5 µM: read-out: ISRE % Activation; for EC50: dose response in the presence of IFN-α
Protocol: (§3) ISRE-bla THP-1 cells were plated in 96-well plates at 5×10^4 cells/well in 50 μl RPMI supplemented with 10% dialyzed FBS (Atlanta Biologicals, Inc., GA), 0.1 mM nonessential amino acids, 1 mM sodium pyruvate, 100 U/mL penicillin and 100 μg/ml streptomycin. Type I IFN-α (R&D Systems, #11200-2) solution was prepared in assay medium at a concentration of 200 U/mL Tested compounds were dissolved in DMSO at 1 mM and were further diluted in the IFN-α solution to a final concentration of 10 μM. 50 μL of this solution was then transferred to the plated cells to obtain a final concentration of IFN-α at 100 U/mL and compound at 5 μM ([…]), The cells were incubated for 16 hours, after which 20 μL of 6×LiveBLAzer™ FRET B/G Substrate (CCF4-AM) mixture (prepared according to the manufacturer's instructions) was added to each well, Plates were incubated at room temperature in the dark for 3 hours. Fluorescence was measured on a Tecan Infinite M200 plate reader at an excitation wavelength of 405 nm, and emission wavelengths of 465 nm and 535 nm. Background values (cell free wells at the same fluorescence wavelength) were subtracted from the raw fluorescence intensity values and the emission ratios were calculated as the ratio of background subtracted fluorescence intensities at 465 nm to background subtracted fluorescence intensities at 535 nm. The ISRE activity values for these compounds were 2-point normalized to yield activity of compound 1+IFN-α as 200% and activity for IFN-α as 100%.
Measurement of ISRE Activity in ISRE-bla THP-1 Cells. ISREbla THP-1 cells were plated in 96-well plates at 5×10^4 cells/well in 50 μL of RPMI supplemented with 10% dialyzed FBS (Atlanta Biologicals, Inc., GA), 0.1 mM nonessential amino acids, 1 mM sodium pyruvate, 100 U/mL penicillin, and 100 μg/mL streptomycin. Type I IFN-α (R&D Systems, no. 11200-2) solution was prepared in assay medium at a concentration of 200 U/mL. Tested compounds were dissolved in DMSO at 1 mM and were further diluted in the IFN-α solution to a final concentration of 10 μM. 50 μL of this solution was then transferred to the plated cells to obtain a final concentration of IFN-α at 100 U/mL and compound at 5 μM ([…]). The cells were incubated for 16 hours, after which 20 μL of 6×LiveBLAzer FRET B/G substrate (CCF4-AM) mixture (prepared according to the manufacturer's instructions) was added to each well. Plates were incubated at room temperature in the dark for 3 hours. Fluorescence was measured on a Tecan Infinite M200 plate reader at an excitation wavelength of 405 nm and emission wavelengths of 465 and 535 nm. Background values (cell free wells at the same fluorescence wavelength) were subtracted from the raw fluorescence intensity values and the emission ratios were calculated as the ratio of background subtracted fluorescence intensities at 465 nm to background subtracted fluorescence intensities at 535 nm. The ISRE activity values for these compounds were two-point normalized to yield activity of compound 1+IFN-α as 200% and activity for IFN-α as 100%.

THP-1 cells = assay: Cell viability assay (MTT); details: compound 5 μM, 18 hours incubation; normalized to DMSO as 100%; mean
Protocol: THP-1 cells were plated in 96-well plates (10^5 cells/well) in 100 μL RPMI supplemented with 10% FBS, 100 U/mL penicillin and 100 μg/ml streptomycin. Compounds were dissolved in DMSO at 1 mM stock solution and were further diluted to 10 μM in the assay medium. 100 μL of this solution was added to the cells to obtain a final compound concentration of 5 μM ([…]). After 18 hours incubation, a solution of MTT in assay media (0.5 mg/mL) was added to each well and further incubated for 4 to 6 hours, followed by addition of cell lysis buffer (15% w/v SDS and 0.12% v/v 12N HCl aqueous solution), incubated overnight, and then absorbance measured at 570 nm using 650 nm as reference using Tecan Infinite M200 plate reader.
Cell Viability Assay. THP-1 cells were plated in 96-well plates (10^5 cells/well) in 100 μL RPMI supplemented with 10% FBS, 100 U/mL penicillin, and 100 μg/mL streptomycin. Compounds were dissolved in DMSO at 1 mM stock solution and were further diluted to 10 μM in the assay medium. 100 μL of this solution was added to the cells to obtain a final compound concentration of 5 μM ([…]). After 18 h incubation, a solution of MTT in assay media (0.5 mg/mL) was added to each well and further incubated for 4-6 hours, followed by addition of cell lysis buffer (15% w/v SDS and 0.12% v/v 12 N HCl aqueous solution), incubation overnight, and then absorbance was measured at 570 nm using 650 nm as reference using Tecan Infinite M200 plate reader.

NF-κB and ISRE = NF-κB and ISRE reporter assays (primary screens), statements in words for both assays; details: with LPS or IFN-α as primary stimulus, compared to compound 1
Protocol: as §1, §3, §2
Measurement of ISRE Activity in ISRE-bla THP-1 Cells. […]

EC50 (NF-κB) [nM] | EC50 (ISRE) [nM] | Compound | activity at 5 µM (NF-κB) [%] | activity at 5 µM (ISRE) [%] | MTT % Viability (THP-1 cells) [%] | activity in NF-κB and ISRE assays (in words) (NF-κB and ISRE) | activity in NF-κB and ISRE assays (in words) (NF-κB and ISRE; hydrochloride) | NF-κB % Activation (NF-κB) [%] | ISRE % Activation (ISRE) [%] | ISRE activity (in words) (ISRE; with IFN-α)
– | – | CCCOc1ccc(S(=O)(=O)Nc2cc(OC)c(Cl)cc2OC)cc1 [Compound 13, N-(4-chloro-2,5-dimethoxyphenyl)-4-propoxybenzenesulfonamide] | 149 | 125 | 71.3 | weakly active; also recorded: retained activity | – | – | – | –
– | – | COc1cc(NS(=O)(=O)c2ccc(O)cc2)c(OC)cc1Cl [Compound 11, N-(4-chloro-2,5-dimethoxyphenyl)-4-hydroxybenzenesulfonamide] | 98 | 104 | 85.2 | not tolerated | – | – | – | –
3320 | 3040 | CCOc1ccc(S(=O)(=O)N(CCCN)c2cc(OC)c(Cl)cc2OC)cc1.Cl [Compound 55, N-(3-aminopropyl)-N-(4-chloro-2,5-dimethoxyphenyl)-4-ethoxybenzenesulfonamide hydrochloride] | 189 | 182 | 71.0 | – | recovered; also recorded: less potent than compound 1; also recorded: retained activity even though slightly attenuated | – | – | –
– | – | CCOc1ccc(S(=O)(=O)N(CCCO)c2cc(OC)c(Cl)cc2OC)cc1 [Compound 51, N-(4-chloro-2,5-dimethoxyphenyl)-4-ethoxy-N-(3-hydroxypropyl) benzenesulfonamide] | – | – | 68.5 | retained activity in both the assays | – | 219 | 178 | –
– | – | CCOc1ccc(S(=O)(=O)Nc2cc(OC)c(Cl)c(OC)c2)cc1 [Compound 8, N-(4-chloro-3,5-dimethoxyphenyl)-4-ethoxybenzenesulfonamide] | 179 | 218 | 71.4 | complete loss of activity | – | – | – | slightly skewed ISRE activity
– | – | COc1cccc(S(=O)(=O)Nc2cc(OC)c(Cl)cc2OC)c1 [Compound 23, N-(4-chloro-2,5-dimethoxyphenyl)-3-methoxybenzenesulfonamide] | 116 | 104 | 79.6 | none of these molecules were active | – | – | – | –
– | – | CCOc1ccc(S(=O)(=O)N(CCCNC(=O)CCCCCNC(=O)c2ccc3c(c2)C(=O)OC32c3ccc(O)cc3Oc3cc(O)ccc32)c2cc(OC)c(Cl)cc2OC)cc1 [Compound 56, N-(6-((3-((N-(4-chloro-2,5-dimethoxyphenyl)-4-ethoxyphenyl)sulfonamido)propyl)amino)-6-oxohexyl)-3′,6′-dihydroxy-3-oxo-3H-spiro[isobenzofuran-1,9′-xanthene]-5-carboxamide] | – | – | 98.1 | completely inactive | – | 100 | 96 | –
– | – | C#CCOCCOCCOCCN(c1cc(OC)c(Cl)cc1OC)S(=O)(=O)c1ccc(OCC)cc1 [Compound 45, N-(4-chloro-2,5-dimethoxyphenyl)-4-ethoxy-N-(2-(2-(2-(prop-2-yn-1-yloxy)ethoxy)ethoxy)ethyl)benzenesulfonamide] | 107 | 130 | 73.7 | too long to retain activity | – | – | – | –
1850 | 1400 | COc1ccc(S(=O)(=O)Nc2cc(OC)c(Cl)cc2OC)cc1 [Compound 12, N-(4-chloro-2,5-dimethoxyphenyl)-4-methoxybenzenesulfonamide] | 226 | 219 | 69.6 | tolerated; also recorded: retained activity | – | – | – | –
– | – | CCOc1ccc(S(=O)(=O)Nc2cc(OC)ccc2OC)cc1 [Compound 6, N-(2,5-dimethoxyphenyl)-4-ethoxybenzenesulfonamide] | 116 | 96 | 73.1 | retained activity | – | – | – | –
– | – | CCOc1ccc(S(=O)(=O)N(CC(C)C)c2cc(OC)c(Cl)cc2OC)cc1 [Compound 41, N-(4-chloro-2,5-dimethoxyphenyl)-4-ethoxy-N-isobutylbenzenesulfonamide] | 175 | 193 | 76.7 | regained the activity in both the NF-κB and ISRE assays | – | – | – | –
